How the values were obtained:
C. elegans = type: in vivo; conditions: for movement assay reading, first number column (no head printed): Table 10 c3; for movement assay reading, second number column (no head printed): Table 10 c4; for hit call: detectable change in the movement behaviour: Table 10 c7
Text: Nematode worms that are placed in liquid culture will move in such a way that they maintain a more or less even (or homogeneous) distribution throughout the culture. Nematode worms that are defective in movement will precipitate to the bottom in liquid culture.
Advanced multi-well plate readers are able to detect sub-regions of the wells of multi-well plates. By using these plate readers it is possible to take measurements in selected areas of the surface of the wells of the multi-well plates. If the area of measurement is centralized, so that only the middle of the well is measured, a difference in nematode autofluorescence (fluorescence which occurs in the absence of any external marker molecule) or optical density can be observed in the wells containing nematodes that move normally as compared to wells containing nematodes that are defective for movement. For the wells containing the nematodes that move normally, a low level of autofluorescence or optical density will be observed, whilst a high level of autofluorescence or optical density can be observed in the wells that contain the nematodes that are defective in movement. Optical density is measured using a variation of the platelet aggregation assay, which is well known in the art. Using the MRX revelation device from Dynex (USA), optical density can be measured at multiple points per well, showing the precipitation pattern of the nematodes.
In an adaptation of the movement assay, autofluorescence or optical density measurements can be taken in two areas of the surface of the well, one measurement in the centre of the well, and on measurement on the edge of the well. Comparing the two measurements gives analogous results as in the case if only the centre of the well is measured but the additional measurement of the edge of the well results in an extra control and somewhat more distinct results.

C. elegans pharynx = test: Pharynx pumping assay (calcein-AM), strain not specified: dilution series, insecticides, Tocris library; type: in vivo; conditions: FIGS. 18 to 21
Experimental: The pumping rate of the pharynx is measured indirectly by adding a marker molecule precursor such as calcein-AM to the medium and measuring the formation of marker dye in the C. elegans gut. Calcein-AM is cleaved by esterases present in the C. elegans gut to release calcein, which is a fluorescent molecule. […] Therefore by measuring the accumulation of calcein in the nematode gut, detectable by fluorescence, it is possible to determine the pumping rate of the pharynx.
To perform the pharynx pumping screen with calcein-AM, a concentration of between 1 and 100 μM calcein-AM is added into the medium. Preferably 5 to 10 μM calcein-AM is used. Fluorescence is measured using a multi-well plate reader (Victor2, Wallac Oy, Finland) with following settings: Ex/Em=485/530.
To determine the sensitivity of the pharynx pumping assay, dilution series were made for some chemical substances. These include the chemicals clomipramine, tamoxifen, BP554, pimazide and thapsigargin. A concentration range was made from less than 1 μM up to 100 μM, and the pumping assay was repeated as described in previous examples.

Compound	movement assay reading, first number column (no head printed) (C. elegans)	movement assay reading, second number column (no head printed) (C. elegans)	hit call: detectable change in the movement behaviour (C. elegans)	effect of compounds of known insecticidal activity on the pharynx pumping rate (C. elegans pharynx)
CC(=O)N1CCN(c2ccc(OCC3COC(Cn4ccnc4)(c4ccc(Cl)cc4Cl)O3)cc2)CC1 (stereo not drawn) [Ketoconazole]	15803	33531	HIT	
O=c1[nH]c2cc(Cl)ccc2c(O)c1-c1cccc(Oc2ccccc2)c1 [L-701,324]	14647	32476	HIT	
N[C@@H](CP(=O)(O)O)C(=O)O [L-AP3]	22073	41858	HIT	
NC(CCP(=O)(O)O)C(=O)O [L-AP4]	19824	39523	HIT	
N[C@@H](CCCP(=O)(O)O)C(=O)O [L-AP5]	21446	42393	HIT	
CC(N)(COP(=O)(O)Oc1ccccc1)C(=O)O (stereo not drawn) [MSOPPE]	23760	44614	HIT	
Oc1ccc2c3c1O[C@H]1c4c(c5ccccc5n4Cc4ccccc4)C[C@@]4(O)[C@@H](C2)N(CC2CC2)CC[C@]314 [N-Benzyl naltrindole]	14932	31760	HIT	
NCC(O)COc1cccc2ccccc12 (stereo not drawn) [N-desisopropyl propanolol]	23737	43102	HIT	
N[C@@H](COP(=O)(O)O)C(=O)O [O-Phospho-L-serine]	20292	41086	HIT	
COc1cc2nc(N3CCN(C(=O)c4ccco4)CC3)nc(N)c2cc1OC [Prazosin]	94689	113608	HIT	
OCC(O)COc1cccc2ccccc12 (stereo not drawn) [Propanolol glycol]	17134	34849		
CC(C)(Cc1c[nH]c2ccc(Cl)cc12)NCCOc1ccccc1OCC1CC1 [RS 17053]	14439	32050	HIT	
C=C(C)[C@H]1Cc2c(ccc3c2O[C@@H]2COc4cc(OC)c(OC)cc4[C@@H]2C3=O)O1 [Rotenone]				reduction in the pharynx pumping rate
CC(=O)N[C@@H](CC(=O)N[C@@H](CCC(=O)O)C(=O)O)C(=O)O [Spaglumic acid]	20295	38417	HIT	
CP(=O)(O)C1=CCNCC1 [TPMPA]	21792	120778	HIT	
C=CC(N)CCC(=O)O (stereo not drawn) [Vigabatrin]	20828	61410	HIT	
COc1ccc(CCN(C)CCc2ccc(OC)c(OC)c2)cc1OC [YS-035]	21415	42457	HIT	
O=C(O)[C@@H]1C[C@H](C(=O)O)N1 [cis-Azetidine-2,4-dicarboxylic acid]	19503	40568	HIT	
O=C(O)[C@@H]1C[C@@H](C(=O)O)N1 [tADA]	16096	32342	HIT	
S(-)-Atenolol	18176	36336	HIT	
